Tests used:
tNFATC2 = assay: Confocal microscopy of nuclear-localized tNFATC2 in Jurkat T cells; format: cell-based; settings: activated Jurkat T cells
Method: Jurkat T cells were transfected with pCAG-EGFP-tNFATC2-IRES-mCherry-peptide by electroporation. Two days later, these cells were pretreated with […] for 30 min. Afterwards, they were treated with 40 nM PMA and 1 μM ionomycin for 4 hours under culture conditions. Nuclei were stained by treating these cells with 10 μg/ml Hoechst 33342 (Invitrogen, Waltham, MA, USA) before imaging with a confocal laser scanning microscopy (Nikon, Tokyo, Japan). Colocalization analysis of […] and Hoechst was performed with ImageJ and corresponding plug-in JACoP to measure the Manders coefficient (Manders, E. M. et al., J. Cell Sci. 103, 857-862 (1992), Bolte, J. Microsc. 224, 213-232 (2006)).

NFATC2 = assay: NFAT mobility shifting assay in Jurkat T cells; format: cell-based; settings: PMA and ionomycin
Method: In FIG. 2A, a luciferase reporter assay was performed to measure NFAT transcriptional activity. Jurkat T cells expressing GST-tagged peptides were treated with PMA and ionomycin for activation. Jurkat T cells expressing only GST were used as negative controls, and cells treated with 0.5 μM FK506 were used as positive controls (n=3). In FIG. 2B, an NFAT mobility shifting assay was performed using Jurkat T cells expressing HA-mCherry-tagged peptides. For dephosphorylation of NFATC2, Jurkat T cells were treated with PMA and ionomycin for 2 hours. In FIG. 2C, the hyperphosphorylated and hypophosphorylated NFATC2 of FIG. 2B was measured using ImageJ, and the hypo/hyper ratio was calculated (n=7). In FIG. 2D, snapshot images of the indicated peptides and activated Jurkat T cells expressing tNFATC2 were obtained using a confocal microscope. Expression and intracellular localization of peptides and tNFATC2 are indicated by mCherry (red) and EGFP (green), respectively. […] In FIG. 2E, tNFATC2 located in the nucleus was measured by calculating a ratio at which Hoechst (M1) and EGFP (M2) were present together. […] The data were repeated independently as many times as described and are expressed as means±standard deviation. Statistical differences were determined using two-sided Student's t-test (A, C) or one-way analysis of variance (E). *** p<0.001, NC: negative control. […]

| Compound | proportion of nuclear-localized tNFATC2 (tNFATC2) | NFATC2 band shift (dephosphorylation) (NFATC2) |
| --- | --- | --- |
| C=CC[C@@H]1/C=C(\C)C[C@H](C)C[C@H](OC)[C@H]2O[C@@](O)(C(=O)C(=O)N3CCCC[C@H]3C(=O)O[C@H](/C(C)=C/[C@@H]3CC[C@@H](O)[C@H](OC)C3)[C@H](C)[C@@H](O)CC1=O)[C@H](C)C[C@@H]2OC [FK506, Tacrolimus, reference compound] | lowest | significantly inhibited NFATC2 band shift |
| PEITVTPPTP [CABIN1-L-1-2] | slightly higher | significantly inhibited NFATC2 band shift |

— patent US20240376163A1, “PEPTIDE FOR INHIBITING CALCINEURIN AND USE THEREOF” (Seoul National University R&DB Foundation, priority 2023, published 2024)
